# Measured values taken from patent US11680086B2, “Lipopeptide for potently inhibiting HIV, derivative thereof, pharmaceutical composition thereof and use thereof” (Institute of Pathogen Biology, Chinese Academy of Medical …, priority 2017, dated 2023).
# pIC50: −log10 of the molar value. Where two headings read alike, the source gives them in different places. Peptide text beside a SMILES is read from it. * marks the point of attachment. Palmitoyl = CCCCCCCCCCCCCCCC(=O)*
# Legend:
# [1] = circular dichroism secondary structure analysis of the inhibitors themselves; assay type: physicochemical; conditions: 10 μM, 20 μM and 40 μM in PBS
# Experimental: (§1) The circular dichroism spectrophotometer was Jasco-815 by JASCO Inc., and the assay method was referred to the papers published by the inventors (see the References 18 and 30 listed in the Background Art). […] The N39 and an inhibitor were separately dissolved in a phosphate buffered saline (PBS) to prepare a PBS solution (pH 7.2) of a concentration of 20 μM. The N39 was mixed with an inhibitor at a volume ratio of 1:1 (final concentration of 10 μM for each), the mixed sample was placed at 37° C. for 30 minutes to fully react, and then the helix content and Tm value of the resultant complex were measured by the circular dichroism spectrophotometer. The scan wavelength range of the device was 195-260 nm with a wavelength interval of 1 nm, and the values measured by scanning for three times were averaged. Based on the CD signals, the interaction between the polypeptides and the helix content were determined. Then, the sample for CD signal measurement was transferred to the temperature scanning sample cell, the program of the CD device was set to temperature scanning with a detection wavelength of 220 nm and scanning range of 20-98° C., and the program scan was performed to obtain the curve of the CD signals vs temperature, based on which the Tm value was calculated. Based on the Tm value, the stability of the formed helical structure of the inhibitor and N39 was judged.
# For easy analysis, the α-helix content and the Tm value of the inhibitors were measured at concentrations of 10 μM, 20 μM, and 40 μM (PBS solution), respectively.
# [2] = tested on: HIV-1 strain NL4-3 pseudovirus (D36G mutant); assay type: cell-based
# Experimental: (§2) The supernatant was discarded from the wells. […] Inhibition rate (%) and IC50 value were calculated.
# [3] = target: N39 (NHR-derived polypeptide of gp41) (Human immunodeficiency virus type 1 group M subtype B, UniProt P04578); assay type: binding, HIV-1; conditions: 10 μM each, PBS pH 7.2
# Experimental: as §1
# [4] = tested on: 35 HIV-1 pseudoviruses (subtypes A, B, B', C, G, A/C, A/E, B/C); conditions: for pIC50: read-out: average IC50 for inhibition of various types of HIV-1 pseudoviruses, average over 35 pseudoviruses
# From the text: HIV-1 pseudovirus-mediated cell entry inhibition assay: basic steps included: (1) Preparation of HIV-1 pseudovirus: the 293T cells were co-transfected with a plasmid expressing the envelope protein (Env) of HIV-1 strain NL4-3 (i.e., a recombinant expression plasmid obtained by inserting the gene encoding the envelope protein (ENV) of the D36G mutant of the HIV-1 strain NL4-3 in the Table 2 of the Reference 14 listed in the Background Art into the vector pcDNA3.1(−)) and the HIV-1 backbone plasmid pSG3Δenv (provided by the AIDS Reagent Program of National Institutes of Health (NIH), catalog number: 11051) by using a cell transfection reagent, incubated in a cell incubator of 37° C. and 5% CO2 for 6 hours, and then the medium was changed, and the cells were further incubated for 48 hours. The cell culture supernatant containing pseudovirus particles was pipetted and filtered with a 0.45 μm filter to collect the supernatant, then 20% fetal bovine serum (FBS) was added thereto, the final solution was transferred to a polypropylene tube, and stored at −80° C. for ready for use or directly subjected to virus titration. (2) Titration of HIV-1 pseudovirus: the viruses were diluted by 5 folds in a 96-well plate, and 4 replicate wells with 8 gradients were set to a final volume of 100 microliters. The TZM-b1 cells were trypsinized and counted, and the cells were diluted to 1×10^5 cells/ml with DMEM complete medium; 100 μl of cells dilution (containing 15 μg/ml DEAE-dextran) per well were added and cultured at 37° C. and 5% CO2 for 48 hours. The 96-well plate was then taken from the cell culture incubator. The supernatant was discarded from the wells. To each well, 30 μl of a cell lysate was added, and after 10 minutes, 100 μl of a luciferase detection reagent was added. 100 μl of liquid was pipetted from each well and added to a corresponding 96-well white plate, and the luminescence values were read by a microplate photometer. The virus titer was calculated by the Reed-Muench method. (3) Antiviral activity assay: the test substance was dissolved in DMSO and diluted with a cell culture solution by 3 folds, and placed in a 96-well plate at a final volume of […]. 50 μl of a DMEM medium was used in place of the test substance as a negative control. To each well, 100 μl of TZM-b1 target cells solution (containing 15 μg/ml DEAE-dextran) at a concentration of 1×10^5 cells/ml was added, and then 50 μl (corresponding to 100 TCID50 per well) of the HIV-1 pseudovirus obtained above was added. After incubation at 37° C. and 5% CO2 for 48 hours, the relative light units (RLU) of each well were determined by using a luciferase detection reagent (Promega). Inhibition rate (%) and IC50 value were calculated.
# Among them, the A, B and C subtypes were the main viruses causing AIDS epidemic in the world, while B/C and A/E recombinant viruses were the main viruses in China. […] Among the Env expression plasmids used for the preparation of pseudoviral, except that the Env expression plasmids used for preparation of PVO, Du156 and CAP 210.2.00.E8 were obtained from the AIDS Reagent Program of NIH in the United states, other plasmids were preserved by the laboratory of Prof. He Yuxian, Institute of Pathogen Biology, Chinese Academy of Medical Sciences, please see the References 13, 14 and 18 listed in the Background Art and articles of Chong et al. (Chong H, Yao X, Zhang C, Cai L, Cui S, Wang Y, He Y. Biophysical property and broad anti-HIV activity of Albuvirtide, a 3-maleimimidoproprotionic acid-modified peptide fusion inhibitor. PLoS One, 2012; 7 (3): e 32599). The preparation of the pseudovirus and the antiviral assay were the same as those in Example 2.1 of Example 2 (HIV-1 pseudovirus-mediated cell entry inhibition assay).
# HIV-1 strain JRCSF = assay type: cell-based
# Experimental: (§3) Inhibition rate (%) and IC50 value were calculated.
# [5] = tested on: NL4-3 pseudovirus carrying T-20 resistance mutation site of NHR; assay: inhibition of T-20 resistant strains; assay type: cell-based, HIV-1; conditions: strains with single or double mutations
# [6] = tested on: HIV-2 strain ROD (infectious); assay: inhibition of HIV-2; assay type: cell-based; conditions: HIV-2 ROD
# Experimental: as §3
# (§4) In order to further reflect the antiviral advantages of the potent lipopeptides of the present invention, their inhibitory activity against HIV-2 and SIV was determined in the example. The methods of antiviral activity assays used were described in the literatures published by the present inventors (see the References 13 and 30 listed in the Background Art). The molecular cloning plasmid pROD of the HIV-2 strain ROD (HIV-2ROD) was kindly provided by Professor Nuno Taveira from the University of Lisbon, Portugal, and the plasmids expressing the SIV strain SIVpbj (SIVPBJ) and SIV239 envelope proteins (pSIVpbj-Env and pSIV239, respectively) were kindly provided by Professor Xu Jianqing from the Fudan University. The preparation of the infectious ROD was the same as that of the infectious JRCSF in the above section 2.1, and the pseudoviruses SIVpbj and SIV239 were prepared by a method same as that described in the above Examples 2 and 3.
# [7] = tested on: SIV pseudoviruses SIVpbj and SIV239; assay: inhibition of SIV pseudoviruses; assay type: cell-based
# Experimental: as §2, §4
# [8] = tested on: HXB2-mediated cell fusion (HL2/3 effector cells, TZM-b1 target cells); assay type: cell-based, HIV-1
# Experimental: HIV-1 mediated cell fusion inhibition assay: the effector cells (HL2/3 cells) and target cells (TZM-b1 cells) were provided by the AIDS Reagent Program of National Institutes of Health (NIH) (catalog numbers: 1294 and 8129, respectively). The both cells were adherent cells and were cultured in a DMEM cell culture medium containing ampicillin/streptomycin double antibiotics and 10% fetal bovine serum (FBS). The TZM-b1 was first added to a 96-well cell culture plate (1×10^4 cells/well), and cultured overnight at 37° C. and 5% CO2. The test substance was diluted with the DMEM cell culture medium by 3 folds and mixed with HL2/3 effector cells (3×10^4 cells/well), then added to the TZM-b1 target cells, and further cultured for 6 hours to fully fuse. The activity of luciferase (relative fluorescence units, RLU) was then determined using a luciferase reporter gene kit from Promega company according to the instructions. The inhibition rate of each sample at each concentration was calculated, and the half effective inhibitory concentration (IC50 value) was calculated using GraphPad Prism Software 2.01.
# NL4-3WT pseudovirus = conditions: wild type NL4-3WT
# From the text: HIV-1 pseudovirus-mediated cell entry inhibition assay: basic steps included: (1) Preparation of HIV-1 pseudovirus: the 293T cells were co-transfected with a plasmid expressing the envelope protein (Env) of HIV-1 strain NL4-3 (i.e., a recombinant expression plasmid obtained by inserting the gene encoding the envelope protein (ENV) of the D36G mutant of the HIV-1 strain NL4-3 in the Table 2 of the Reference 14 listed in the Background Art into the vector pcDNA3.1(−)) and the HIV-1 backbone plasmid pSG3Δenv (provided by the AIDS Reagent Program of National Institutes of Health (NIH), catalog number: 11051) by using a cell transfection reagent, incubated in a cell incubator of 37° C. and 5% CO2 for 6 hours, and then the medium was changed, and the cells were further incubated for 48 hours. The cell culture supernatant containing pseudovirus particles was pipetted and filtered with a 0.45 μm filter to collect the supernatant, then 20% fetal bovine serum (FBS) was added thereto, the final solution was transferred to a polypropylene tube, and stored at −80° C. for ready for use or directly subjected to virus titration. […] The TZM-b1 cells were trypsinized and counted, and the cells were diluted to 1×10^5 cells/ml with DMEM complete medium; 100 μl of cells dilution (containing 15 μg/ml DEAE-dextran) per well were added and cultured at 37° C. and 5% CO2 for 48 hours. […]
# [9] = tested on: HIV-1 strain NL4-3 (NL4-3D36G); assay: antiviral activity in serum of macaque after subcutaneous injection; assay type: in vivo, macaques (rhesus monkeys); conditions: 3 mg/kg subcutaneous
# Experimental: The specific method was as follows: 6 experimental macaques (rhesus monkeys) were selected, half male and half female, aged 3-4 years old, weighing 3.4-4.7 kg. […] The serum was separated according to a conventional method. The injection interval of each inhibitor was more than 2 weeks to ensure that there was no residue of the previous analyte. The serum activity against the HIV-1 strain NL4-3 (NL4-3D36G) was measured according to the experimental method of the pseudovirus-based assay in the above examples. The serum was diluted by 3 folds. […] Therefore, the lipopeptides of the present invention were not only potent but also were long-lasting effective.
# Chain of N39 (NHR-derived polypeptide of gp41) (P04578 528-566): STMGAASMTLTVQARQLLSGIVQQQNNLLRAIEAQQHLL
compound,measurement,setting,value
CCCCCCCCCCCCCCCC(=O)NCCCC[C@H](NC(=O)[C@H](CCC(=O)O)NC(=O)[C@H](CC(C)C)NC(=O)[C@H](CCCCN)NC(=O)[C@H](CCCCN)NC(=O)[C@H](CC(C)C)NC(=O)[C@H](CCC(=O)O)NC(=O)[C@H](CCC(=O)O)NC(=O)[C@H](CCC(=O)O)NC(=O)[C@H](CC(N)=O)NC(=O)[C@H](CCCCN)NC(=O)[C@H](CCCCN)NC(=O)[C@H](CCC(N)=O)NC(=O)[C@H](CCC(N)=O)NC(=O)[C@H](CCC(=O)O)NC(=O)[C@H](CCC(=O)O)NC(=O)[C@H](CO)NC(=O)[C@H](CCCCN)NC(=O)[C@H](CCCCN)NC(=O)[C@@H](NC(=O)[C@H](CC(C)C)NC(=O)[C@H](CCC(=O)O)NC(=O)[C@H](CCC(=O)O)NC(=O)[C@@H](NC(=O)[C@H](CC(C)C)NC(=O)[C@H](CO)NC(=O)[C@@H](NC(=O)[C@H](Cc1ccc(O)cc1)NC(C)=O)[C@@H](C)O)[C@@H](C)CC)[C@@H](C)CC)C(N)=O [LP-50] (Ac-YTSLIEELIKKSEEQQKKNEEELKKLEK(Palmitoyl)-NH2),secondary structure of the inhibitor itself (in words),[1],distinct helical structure
same,pIC50,"[2]; Entry of NL4-3 (D36G), read-out: IC50 for inhibiting pseudovirus",11.15
same,inhibitory activity as folds of that of T-20,"[2]; NL4-3 pseudovirus entry, relative to T-20",1345 folds
same,inhibitory activity as folds of that of LP-40,"[2]; pseudovirus, relative to LP-40",63 folds
same,Tm value of the complex with N39,[3],63.3 °C
same,pIC50,[4],10.39
same,inhibitory activity against different subtypes of HIV-1 as folds of T-20,"[4]; relative to T-20, from average IC50",1010 folds
same,inhibitory activity as folds of that of T-20,"HIV-1 strain JRCSF; JRCSF replication, relative to T-20",226 folds
same,pIC50,"HIV-1 strain JRCSF; Replication of JRCSF, read-out: IC50 for inhibiting replicative virus",10.64
same,inhibitory activity as folds of that of LP-40,"HIV-1 strain JRCSF; replicative virus, relative to LP-40",12 folds
same,inhibitory activity against T-20 resistant strains (in words),[5],further improved by hundreds or even thousands of folds
same,inhibitory activity against HIV-2 (in words),[6],extremely potent inhibitory activity
same,inhibitory activity against SIV (in words),[7],extremely potent inhibitory activity
same,pIC50,"[8]; HXB2-cell fusion, read-out: IC50 for inhibiting cell fusion",10.68
same,inhibitory activity as folds of that of T-20,"[8]; HXB2-mediated cell fusion, relative to T-20",1151 folds
same,inhibitory activity as folds of that of LP-40,"[8]; cell fusion, relative to LP-40",20 folds
enfuvirtide,secondary structure of the inhibitor itself (in words),[1],irregular disorder structure
same,pIC50,"[2]; NL4-3D36G mutant, Example 4, read-out: IC50",7.86
same,helix content of the complex with N39,[3],48.6%
same,pIC50,NL4-3WT pseudovirus,6.82
same,pIC50,[4],7.38
same,inhibitory activity against T-20 resistant strains (in words),[5],significantly increased by several folds
same,maximum serum dilution multiple for inhibiting 50% of NL4-3 infectivity,[9]; 2 hour after injection,45 folds
same,maximum serum dilution multiple for inhibiting 50% of NL4-3 infectivity,[9]; 4 hour after injection,46 folds
same,inhibitory activity against HIV-2 (in words),[6],extremely weak
same,inhibitory activity against SIV (in words),[7],extremely weak
